Assay results taken from patent publication US9695132B2, “Heteroaryl compounds and uses thereof” (Celgene CAR LLC, priority 2013, dated 2017).

Assays:
FGFR4-WT = FGFR4-WT (Homo sapiens (Human), UniProt P22455); assay: Omnia assay for potency assessment against FGFR4 enzyme; assay type: biochemical; details: [Y10-Sox]=10 uM
Description: A 10× stock solution of FGFR4-WT (PR4380C), (from Invitrogen, Carlsbad, Calif.) corresponding to method a in Table 7, was prepared as described below. Alternatively, a 10× stock solution of FGFR4-WT (F01-11G), (SignalChem, Richmond, BC) corresponding to method b in Table 7, was prepared as described below. A solution of 1.4×ATP (AS001A) and 5× Tyr-Sox conjugated peptide substrate (KNZ3101) were prepared in 1× kinase reaction buffer consisting of 20 mM Tris, pH 7.5, 5 mM MgCl2, 1 mM EGTA, 5 mM β-glycerophosphate, 5% glycerol (10× stock, KB002A) and 0.2 mM DTT (DS001A). […] The serially diluted compounds were prepared on a Tecan EVO100. A second addition of 10 μl of Tyr-Sox FGFR4 substrate was added to each well and the kinase reactions were started with the addition of 35 μL of 1.4×ATP. The reactions were monitored every 71 seconds for 240 minutes at λex360/λem485 in a Synergy plate reader from BioTek (Winooski, Vt.).

pFGFR4 in Huh7 cells = pFGFR4 in Huh7 cells (Homo sapiens (Human), UniProt P22455); assay: FGFR4 signaling, Meso Scale assay (MSD), Method B, Huh7
Description: Huh7 cells were grown in DMEM (Invitrogen, Carlsbad, Calif.) supplemented with 10% FBS (Invitrogen) and 1% Penicillin-Streptomycin (P/S, Lonza, Walkersville, Md.).
For the MSD and ELISA assays, total FGFR4 antibodies were obtained from R&D Systems (Minneapolis, Minn.) and used at 1:500. […] Phospho-FGFR antibodies were obtained from Cell Signaling (Danvers, Mass.) or R&D Systems and used at 1:1000. The phopho-FGFR antibody from Cell Signaling was used for immunoblotting, whereas the phopho-FGFR antibody from R&D was used for MSD and ELISA assays. Secondary antibodies were used at 1:10,000. The goat anti-mouse IgG IRDye 800CW antibody was obtained from LiCor Biosciences (Lincoln, Nebr.) and the goat anti-rabbit IgG Alexa Fluor 680 was obtained from Invitrogen. The anti-rabbit Sulfo-tag and anti-streptavidin Sulfo-tag antibodies was obtained from Meso Scale Discovery (Gaithersburg, Md.), and were used at 1:1000 and 1:5000, respectively.
After treatment, the cells were washed with cold PBS (Invitrogen), and were immediately lysed by freeze/thawing 3× in 32 μL of cold Cell Extraction Buffer (Invitrogen), which was supplemented with Complete Protease inhibitors (Roche) and PhosphoSTOP (Roche) phosphatase inhibitors.
MSD plates (Meso Scale Discovery) were coated with total FGFR-4 antibodies overnight at 4° C. A lysate (25 μL) was added to the MSD plate overnight at 4° C. The MSD signals were obtained by incubating with a phospho-FGFR antibody (R&D Systems) and an anti-rabbit sulfo-tag antibody (Meso Scale), for 2 hr at room temperature. […] The data was fitted using a sigmoidal curve analysis program (Graph Pad Prism version 5) with variable Hill slope to determine the EC50 values.

[1] = method a: [FGFR4-WT]=10 nM (Invitrogen), [ATP]=300 uM

Sequence of pFGFR4 in Huh7 cells (P22455 22-802): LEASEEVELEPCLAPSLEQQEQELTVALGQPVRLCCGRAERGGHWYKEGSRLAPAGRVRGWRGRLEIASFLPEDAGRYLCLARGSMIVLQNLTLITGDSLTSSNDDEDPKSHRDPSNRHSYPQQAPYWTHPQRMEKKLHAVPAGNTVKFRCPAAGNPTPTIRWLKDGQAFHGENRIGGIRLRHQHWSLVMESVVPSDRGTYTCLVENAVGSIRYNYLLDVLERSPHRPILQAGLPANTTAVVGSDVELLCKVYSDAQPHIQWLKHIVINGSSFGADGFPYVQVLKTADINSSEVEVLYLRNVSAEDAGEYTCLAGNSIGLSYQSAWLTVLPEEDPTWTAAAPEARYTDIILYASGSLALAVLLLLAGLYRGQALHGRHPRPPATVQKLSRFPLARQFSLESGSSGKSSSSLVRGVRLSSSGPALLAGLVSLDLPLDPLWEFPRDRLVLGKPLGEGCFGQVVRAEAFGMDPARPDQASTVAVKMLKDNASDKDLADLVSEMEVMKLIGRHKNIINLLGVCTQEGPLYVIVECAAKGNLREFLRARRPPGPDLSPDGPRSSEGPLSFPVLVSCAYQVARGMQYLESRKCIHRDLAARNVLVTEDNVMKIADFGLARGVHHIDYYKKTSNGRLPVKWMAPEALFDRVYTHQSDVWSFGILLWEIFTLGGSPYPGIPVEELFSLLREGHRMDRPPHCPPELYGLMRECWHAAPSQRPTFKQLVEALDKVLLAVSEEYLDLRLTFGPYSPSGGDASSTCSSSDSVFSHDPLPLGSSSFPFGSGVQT
Sequence of FGFR4-WT (P22455 22-802): as above

C=CC(=O)Nc1ccccc1Nc1ncc2c(n1)N(C)C(=O)N(c1cc(OC)cc(OC)c1)C2 [Compound I-5]
IC50 (FGFR4-WT; [1]): < 100 nM
EC50 (pFGFR4 in Huh7 cells): 101 to 500 nM

C=CC(=O)N[C@H]1CCCC[C@H]1Nc1ncc2c(n1)N(C)C(=O)N(c1c(Cl)c(OCC)cc(OCC)c1Cl)C2 [Compound I-219]
IC50 (FGFR4-WT; [1]): 101 to 500 nM
EC50 (pFGFR4 in Huh7 cells): 501 to 999 nM

C=CC(=O)Nc1ccccc1Nc1ncc2c(n1)N(C)C(=O)N(c1c(Cl)cccc1Cl)C2 [Compound I-83]
IC50 (FGFR4-WT; [1]): 101 to 500 nM
EC50 (pFGFR4 in Huh7 cells): 101 to 500 nM

C=CC(=O)N[C@H]1COCC[C@H]1Nc1ncc2c(n1)N(C)C(=O)N(c1c(Cl)c(OC)cc(OC)c1Cl)C2 [Compound I-140]
IC50 (FGFR4-WT; [1]): 101 to 500 nM
EC50 (pFGFR4 in Huh7 cells): 101 to 500 nM

C=CC(=O)Nc1ccccc1Nc1ncc2c(n1)N(CC#N)C(=O)N(c1cc(OC)cc(OC)c1)C2 [Compound I-48]
IC50 (FGFR4-WT; [1]): < 100 nM
EC50 (pFGFR4 in Huh7 cells): 101 to 500 nM

C=CC(=O)NC1CCCCC1Nc1ncc2c(n1)N(Cc1ccnc(N)c1)C(=O)N(c1c(Cl)c(OC)cc(OC)c1Cl)C2 (stereo not shown) [Compound I-133]
IC50 (FGFR4-WT; [1]): < 100 nM
EC50 (pFGFR4 in Huh7 cells): < 100 nM

C=CC(=O)Nc1cc(-c2nnn(C)n2)ccc1Nc1ncc2c(n1)N(C)C(=O)N(c1cc(OC)cc(OC)c1)C2 [Compound I-146]
IC50 (FGFR4-WT; [1]): < 100 nM
EC50 (pFGFR4 in Huh7 cells): 101 to 500 nM

C=CC(=O)Nc1ccccc1Nc1ncc2c(n1)N(Cc1cccnc1)C(=O)N(c1cc(OC)cc(OC)c1)C2 [Compound I-44]
IC50 (FGFR4-WT; [1]): < 100 nM
EC50 (pFGFR4 in Huh7 cells): < 100 nM

C=CC(=O)N[C@H]1COC[C@H]1Nc1ncc2c(n1)N(C)C(=O)N(c1c(Cl)c(OC)cc(OC)c1Cl)C2 [Compound I-186]
IC50 (FGFR4-WT; [1]): < 100 nM
EC50 (pFGFR4 in Huh7 cells): < 100 nM

C=CC(=O)NC1COCC1Nc1ncc2c(n1)N(CC1CC1)C(=O)N(c1c(Cl)c(OC)cc(OC)c1Cl)C2 (stereo not shown) [Compound I-212]
EC50 (pFGFR4 in Huh7 cells): < 100 nM

C=CC(=O)NC1CS(=O)(=O)CC1Nc1ncc2c(n1)N(C)C(=O)N(c1c(Cl)c(OC)cc(OC)c1Cl)C2 (stereo not shown) [Compound I-200]
IC50 (FGFR4-WT; [1]): < 100 nM
EC50 (pFGFR4 in Huh7 cells): 101 to 500 nM

C=CC(=O)NC1COCC1Nc1ncc2c(n1)N(Cc1ccn(C)n1)C(=O)N(c1c(Cl)c(OC)cc(OC)c1Cl)C2 (stereo not shown) [Compound I-215]
IC50 (FGFR4-WT; [1]): < 100 nM
EC50 (pFGFR4 in Huh7 cells): < 100 nM

C=CC(=O)N[C@H]1CCCC[C@H]1Nc1ncc2c(n1)N(C)C(=O)N(c1c(Cl)c(OC)c(OC)c(OC)c1Cl)C2 [Compound I-221]
EC50 (pFGFR4 in Huh7 cells): > 1000 nM

C=CC(=O)NC1COCC1Nc1ncc2c(n1)N(C)C(=O)N(c1cc(C(=O)Nc3cccc(C(C)(C)C)c3)ccc1Cl)C2 (stereo not shown) [Compound I-247]
IC50 (FGFR4-WT; [1]): 101 to 500 nM
EC50 (pFGFR4 in Huh7 cells): < 100 nM

C=CC(=O)NC1CN(c2ccn(C)n2)CC1Nc1ncc2c(n1)N(C)C(=O)N(c1c(Cl)c(OC)cc(OC)c1Cl)C2 (stereo not shown) [Compound I-204]
IC50 (FGFR4-WT; [1]): < 100 nM
EC50 (pFGFR4 in Huh7 cells): < 100 nM

C=CC(=O)NC1CN(C2CCN(C)CC2)CC1Nc1ncc2c(n1)N(C)C(=O)N(c1c(Cl)c(OC)cc(OC)c1Cl)C2 (racemic) [Compound I-154]
IC50 (FGFR4-WT; [1]): 101 to 500 nM
EC50 (pFGFR4 in Huh7 cells): > 1000 nM

C=CC(=O)NC1CN(C)CC1Nc1ncc2c(n1)N(C)C(=O)N(c1c(Cl)c(OC)cc(OC)c1Cl)C2 (racemic) [Compound I-138]
EC50 (pFGFR4 in Huh7 cells): 101 to 500 nM

C=CC(=O)Nc1ccccc1Nc1ncc2c(n1)N(CC(F)F)C(=O)N(c1c(F)c(OC)cc(OC)c1F)C2 [Compound I-116]
IC50 (FGFR4-WT; [1]): < 100 nM
EC50 (pFGFR4 in Huh7 cells): < 100 nM

C=CC(=O)NC1CCCCC1Nc1ncc2c(n1)N(CCF)C(=O)N(c1c(Cl)c(OC)cc(OC)c1Cl)C2 (racemic) [Compound I-106]
EC50 (pFGFR4 in Huh7 cells): 101 to 500 nM

C=CC(=O)Nc1ccccc1Nc1ncc2c(n1)N(C1CCCNC1)C(=O)N(c1cc(OC)cc(OC)c1)C2 (stereo not shown) [Compound I-43]
IC50 (FGFR4-WT; [1]): < 100 nM
EC50 (pFGFR4 in Huh7 cells): > 1000 nM

C=CC(=O)NC1COCC1Nc1ncc2c(n1)N(C)C(=O)N(c1c(Cl)c(OC)c(OC)c(OC)c1Cl)C2 (stereo not shown) [Compound I-208]
IC50 (FGFR4-WT; [1]): 501 to 999 nM
EC50 (pFGFR4 in Huh7 cells): > 1000 nM

C=CC(=O)Nc1ccccc1Nc1ncc2c(n1)N(Cc1cccc(N)c1)C(=O)N(c1c(Cl)c(OC)cc(OC)c1Cl)C2 [Compound I-26]
IC50 (FGFR4-WT; method b: [FGFR4-WT]=2.5 nM (SignalChem), [ATP]=250 uM): < 100 nM
EC50 (pFGFR4 in Huh7 cells): < 100 nM

C=CC(=O)N[C@H]1CCCC[C@H]1Nc1ncc2c(n1)N(C)C(=O)N(c1c(F)c(OC)cc(OC)c1F)C2 [Compound I-143]
IC50 (FGFR4-WT; [1]): < 100 nM
EC50 (pFGFR4 in Huh7 cells): 101 to 500 nM

C=CC(=O)Nc1ccccc1Nc1ncc2c(n1)N(CC1CC1)C(=O)N(c1cc(OC)cc(OC)c1Cl)C2 [Compound I-100]
IC50 (FGFR4-WT; [1]): < 100 nM
EC50 (pFGFR4 in Huh7 cells): < 100 nM

C=CC(=O)NC1COCC1Nc1ncc2c(n1)N(Cc1cn[nH]c1)C(=O)N(c1c(Cl)c(OC)cc(OC)c1Cl)C2 (stereo not shown) [Compound I-214]
EC50 (pFGFR4 in Huh7 cells): 101 to 500 nM

C=CC(=O)Nc1ccccc1Nc1ncc2c(n1)N(CC(F)F)C(=O)N(c1cc(OC)cc(OC)c1Cl)C2 [Compound I-104]
IC50 (FGFR4-WT; [1]): < 100 nM
EC50 (pFGFR4 in Huh7 cells): < 100 nM

C=CC(=O)Nc1nn(C)cc1Nc1ncc2c(n1)N(C)C(=O)N(c1c(Cl)c(OC)cc(OC)c1Cl)C2 [Compound I-117]
IC50 (FGFR4-WT; [1]): < 100 nM
EC50 (pFGFR4 in Huh7 cells): < 100 nM
